Read-outs that look alike come from different tables or passages of the source.
Assays:
[1] = test system: FKBP12:R,S-SLF-X:MAPRE1 ternary complex; design: method as in PMID 40059881; conditions: TR-FRET proximity assay, reported earlier; cited from earlier work
[2] = biological target: FKBP12 (Homo sapiens, UniProt P62942); test: Spectral shift target engagement assay, binary binding to FKBP12; conditions: 40 nM FKBP12-NTA
Text: (§1) Our method of choice is the spectral shift method, which monitors binding events on the target isothermally and in equilibrium via an environment-sensitive near-infrared fluorophore. In the case of target engagement, either the proximity of the ligand towards the dye or structural changes occurring in the target as a result of binding lead to a change in the chemical environment of the fluorophore. Those changes affect the physiochemical properties of the reporter fluorophore and translate into either blue or red shifts (or peak broadening) of emission peaks upon ligand binding, which can be sensitively monitored by simultaneously recording the fluorescence at two wavelengths (i.e., at 650 nm and 670 nm). Calculating the ratio between the two fluorescence channels then allows to monitor subtle emission shifts that occur as a result of target engagement. Affinity measurements can then be performed by recording the spectral shift as a function of ligand concentration.
(§2) Binding studies through FKBP12: To monitor the binding of R,--SLF-11 by the stronger binding FKBP12 in the absence and in the presence of 10 μM MAPRE1 via %Cbound, binary and %Cbound, ternary, respectively, the concentration of reversibly NTA-labeled FKBP12 was limited to [Ctot] = 40 nM. […] In contrast to the experimental setup in the previous two binding experiments with monitoring through the weaker binding protein MAPRE1, where the applied protein concentrations were optimally chosen, this is not the case for the binding experiment through the stronger binder FKBP12. First of all, the applied excess of T with [Ttot] = 10 μM is roughly 20000-fold off of the proposed 100 times KT,1 threshold, which would correspond to 180 mM. Only under such excess conditions of T can the equilibrium of forming TL under the constraint that all ligand L is bound to T be reached to ensure that [Ltot] approaches the “ligand” concentration [TL]. […] If KC,2 is sufficiently high, the 20 nM deviation to correct for the protein concentration could be neglected. However, the resulting calculated value for KC,2 is 0.023 nM, accounting for the cooperativity α = 10,405 and KC,1 = 234 nM as derived by the MAPRE1 experiment. This value is far below the applied protein concentration of [Ctot] = 40 nM and makes it infeasible to estimate KC,2 from the EC50 of the %Cbound, ternary curve. Consequently, the EC50 shifts, meaning the apparent cooperativity, from monitoring the binding by the stronger binding protein C are diverging from the underlying intrinsic cooperativity α. […] The deviation of calculated (254 nM/24.2 nM = 10.5) and measured apparent cooperativity (254 nM/66 nM = 3.8) can be explained by a negative cooperativity induced by the His6-NTA tag of FKBP12. Studies to lower [Ctot] and identify a better position for the spectral shift tag on FKBP12 are ongoing (Figure 6a).
(§3) His-tagged FKBP12 was labeled using the His-Tag Labeling Kit RED-tris-NTA 2nd Generation (MO-L018; NanoTemper Technologies GmbH). The affinity between NTA dye and the His-tag of FKBP12 was determined as 7 nM. MAPRE1 was labeled using the Protein Labeling Kit RED-NHS 2nd Generation (MO-L011; NanoTemper Technologies GmbH). In brief, 10 µM of MAPRE1 was incubated with a 3-fold molar excess of fluorophore for 30 min. The unreacted fluorophore was removed by performing a size exclusion purification (B-column). Collecting the protein fraction yielded 1.8 µM labeled MAPRE1, with a degree of labeling of 0.8, as determined on a Nanodrop.
(§4) A 1:2 dilution series of all compounds (starting from the 10 mM stock concentration) was prepared in pure DMSO. Each concentration was diluted 25-fold with assay buffer (20 mM HEPES, pH 7.4, 150 mM NaCl, 1 mM DTT (all from Carl Roth, Karlsruhe, Germany), and 0.01% Pluronic F-127 (Sigma Aldrich, Taufkirchen, Germany)). Next, 10 µL from each of the prepared ligand dilutions was transferred into an empty well on a Dianthus Microwell Plate (DI-P001A). […]

[3] = biological target: FKBP12 in the presence of MAPRE1 (Homo sapiens, UniProt P62942+Q15691); test: Spectral shift target engagement assay, binding to FKBP12 in the presence of 10 μM MAPRE1 (ternary)
Sequence of FKBP12 in the presence of MAPRE1 (P62942 whole entry): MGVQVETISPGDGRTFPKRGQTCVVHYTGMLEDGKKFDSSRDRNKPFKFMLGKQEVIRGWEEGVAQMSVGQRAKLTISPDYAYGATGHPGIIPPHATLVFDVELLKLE
Sequence of FKBP12 in the presence of MAPRE1 (Q15691 whole entry): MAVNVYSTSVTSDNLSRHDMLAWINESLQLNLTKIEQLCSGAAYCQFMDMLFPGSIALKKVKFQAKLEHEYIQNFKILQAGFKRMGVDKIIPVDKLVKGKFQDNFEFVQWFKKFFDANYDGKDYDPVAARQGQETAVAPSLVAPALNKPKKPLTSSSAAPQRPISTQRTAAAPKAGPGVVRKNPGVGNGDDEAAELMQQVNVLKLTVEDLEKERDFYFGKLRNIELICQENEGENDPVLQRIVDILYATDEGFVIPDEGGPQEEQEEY
Text: as §1, §2, §3, §4

Sequence of FKBP12 (P62942 whole entry, species assumed): as the sequence (P62942 whole entry) above

C=C1CCN2C(=O)COc3cccc(c3)C(CCc3ccc(OC)c(OC)c3)OC(=O)C3CCCCN3C(=O)C(=O)C(C)(C)COC(=O)C(CN)NC(=O)C2C1 (centres unmarked) [R,S-SLF-7]
TR-FRET Recruitment Assay (%Amax) [1]: 45%
EC50 ([2]; no MAPRE1, read-out: EC50 of the %Cbound, binary curve): 186 nM
Kd ([2]; KC,1 = EC50 − [Ctot]/2): 166 nM
EC50 ([3]; 40 nM FKBP12-NTA, 10 μM MAPRE1, read-out: EC50 of the %Cbound, ternary curve (measured)): 110 nM
EC50 ([3]; calculated with the model using α from MAPRE1 binding, read-out: calc EC50 of the %Cbound, ternary curve): 48 nM
